Data from patent US20060058274A1, “Use of an aldosterone receptor antagonist to improve cognitive function” (Pharmacia Corporation, priority 2000, published 2006).
Marks after values point to notes of the source that are not given here.

Legend:
[1] = tested on: patients with mild-to-moderate hypertension; experiment: Phase II dose-ranging study of eplerenone in mild-to-moderate hypertension; format: in vivo, human; details: 50 mg BID
Text: The adjusted mean changes (in mmHg) in diastolic blood pressure (DBP) and systolic blood pressure (SBP) from baseline to final visit are shown in Table 1A.

animal models = details: cited from earlier work
[2] = tested on: patients with severe heart failure; experiment: Clinical study in patients with severe heart failure: HRQOL by SF-36; format: in vivo, human; details: for Change from baseline in SF-36 Bodily Pain / Change from baseline in SF-36 General Health / Change from baseline in SF-36 Mental Composite Summary (MCS) / Change from baseline in SF-36 Mental Health / Change from baseline in SF-36 Physical Composite Summary (PCS) / Change from baseline in SF-36 Physical Functioning / Change from baseline in SF-36 Role Limitations - Emotional / Change from baseline in SF-36 Role Limitations - Physical / Change from baseline in SF-36 Social Functioning / Change from baseline in SF-36 Vitality: 25 mg daily, mean ± SD; for Effect size estimate for change in SF-36 Bodily Pain / Effect size estimate for change in SF-36 General Health / Effect size estimate for change in SF-36 Mental Composite Summary (MCS) / Effect size estimate for change in SF-36 Mental Health / Effect size estimate for change in SF-36 Physical Composite Summary (PCS) / Effect size estimate for change in SF-36 Physical Functioning / Effect size estimate for change in SF-36 Role Limitations - Emotional / Effect size estimate for change in SF-36 Role Limitations - Physical / Effect size estimate for change in SF-36 Social Functioning / Effect size estimate for change in SF-36 Vitality: [mean (spironolactone) − mean (placebo)]/(SD placebo at baseline)
Text: Patients: One thousand six hundred and sixty-three (1,663) patients with severe heart failure were enrolled in the study. […] Treatment with digitalis and vasodilators was allowed, but potassium-sparing diuretics were not permitted. Oral potassium supplements were not recommended unless hypokalemia (serum potassium ≦3.5 mmol per liter) developed. A low salt diet (100-200 mEg/day, sodium) was recommended to all patients. Patients were excluded from the trial if they had clinically significant operable valvular disease (other than mitral or tricuspid regurgitation), congenital heart disease, unstable angina, primary hepatic failure, active malignancy, a heart transplant or were a candidate for heart transplantation, or any life threatening diseae (other than heart failure). Other criteria for exclusion were a serum creatinine concentration >2.5 mg per deciliter (>220 μmol per liter) or a serum potassium concentration >5.0 mmol per liter. The protocol was approved by the Institutional Review Boards or Ethics Committees of all participating institutions. Written informed consent was obtained from all patients.
Study Group: Subjects were randomly assigned to receive either spironolactone 25 mg daily or placebo. HRQOL was assessed in a subsample of 90 subjects in 2 participating countries using the Medical Outcomes Trust Short-Form 36-item Health Survey (SF-36). Assessments were scheduled at baseline, 1, 2, 3, and 6 months after initiation of therapy.
HRQOL Evaluation: HRQOL was assessed using the Short-Form 36-item Health Survey (SF-36). (Ware J E, Snow K K, Kosinski M, Gandek B. SF-36 Health Survey: Manual and Interpretation Guide. Boston, Mass.: The Health Institute, 1993). Assessments were scheduled at baseline, 1, 2, 3, 6 and 12 months after initiation of therapy. The analysis presented herein is limited to 6-month follow-up as less than 50% of subjects had 12-month follow-up data.
Statistical Analyses: Change from baseline was assessed for the 8 dimension scores of the SF-36, as well as the Physical (PCS) and Mental Composite Summary (MCS) scores. (Ware J E, Kosinski M, Keller S D. SF-36 Physical and Mental Health Summary Scales: A User's Manual. Boston, Mass.: The Health Institute, 1994). The PCS and MCS are generated to represent weighted summaries scores of the four physical functioning scales and four mental functioning scales of the SF-36. The summary scores are generally regarded as having improved reliability and precision as they are based on an incrementally larger number of health states contained in the SF-36 items. (Ware J E, Kosinski M, Keller S D. SF-36 Physical and Mental Health Summary Scales: A User's Manual. Boston, Mass.: The Health Institute, 1994.) Changes from baseline scores were compared between groups using non-directional independent groups t-tests. An alpha level of 0.05 was considered to be statistically significant. As an indicator of the responsiveness of the SF-36 scales to changes in health-related quality of life in severe heart failure patients, effect size estimates were also calculated. Effect size estimates were calculated as [mean (spironolactone)−mean (placebo)]/(SD placebo at baseline). (Hays R D, Anderson R, Revicki D. Psychometric considerations in evaluating health-related quality of life. Quality of Life Research 1993;2:441-449; Samsa G, Edelman D, Rothman M L, et al. Determining clinically important differences in health status measures. A general approach with illustrations to the Health Utilities Index Mark II. PharmacoEconomics1999;15:141-155). All analyses were carried out using SAS System for Windows, Release 6.12. (SAS version 6.12, SAS Institute Inc., North Carolina, 1996).
Patient Characteristics: Baseline HRQOL was assessed in a subsample of 90 subjects in 2 participating countries (i.e., Brazil and Canada). Forty-six subjects were randomized to spironolactone; 44 were randomized to the placebo arm. Sixty subjects had complete data for the 6 months of follow-up.

women with PMS = details: cited from earlier work
rats = details: prior treatment; scopolamine cholinergic blockade; cited from earlier work
[3] = ambulatory blood pressure monitoring
[4] = 3 months, listed as spironolactone
[5] = 6 months, listed as spironolactone
[6] = added to conventional heart failure therapy, severe HF
[7] = 100 mg daily from day 14 of menstrual cycle, compared to placebo, p<0.001

Q: What does the source list for `CC(=O)SC1CC2=CC(=O)CCC2(C)C2CCC3(C)C(CCC34CCC(=O)O4)C12` (stereo not shown) [Spironolactone, 17-hydroxy-7″-mercapto-3-oxo-17″-pregn-4-ene-21-carboxylic acid γ-lactone acetate]?
A: adjusted mean change in ABPM DBP from baseline to final visit [1, 3]: −8.7 mmHg; adjusted mean change in ABPM SBP from baseline to final visit [1, 3]: −15.8 mmHg; adjusted mean change in Cuff DBP from baseline to final visit ([1]; eight-week study): −9.5 mmHg; adjusted mean change in Cuff SBP from baseline to final visit ([1]; eight-week study): −16.7 mmHg; myocardial fibrosis (animal models): prevents; Change from baseline in SF-36 Bodily Pain ([2]; 3 months): 19.6 ± 30.0^a; Change from baseline in SF-36 General Health ([2]; 3 months): 9.7 ± 20.4^a; Change from baseline in SF-36 Mental Composite Summary (MCS) ([2]; 3 months): 13.2 ± 11.8^a,b; Change from baseline in SF-36 Mental Health ([2]; 3 months): 19.9 ± 21.2^a,b; Change from baseline in SF-36 Physical Composite Summary (PCS) ([2]; 3 months): 3.0 ± 8.1^a; Change from baseline in SF-36 Physical Functioning ([2]; 3 months): 7.9 ± 19.4^a; Change from baseline in SF-36 Role Limitations - Emotional ([2]; 3 months): 37.8 ± 46.1^a; Change from baseline in SF-36 Role Limitations - Physical ([2]; 3 months): 23.3 ± 40.1^a; Change from baseline in SF-36 Social Functioning ([2]; 3 months): 24.6 ± 33.6^a; Change from baseline in SF-36 Vitality ([2]; 3 months): 16.7 ± 24.1^a; Change from baseline in SF-36 Mental Composite Summary (MCS) [2, 4]: 13.2±11.8; Change from baseline in SF-36 Mental Health [2, 4]: 19.9±21.2; Effect size estimate for change in SF-36 Bodily Pain ([2]; 3 months): 0.40; Effect size estimate for change in SF-36 General Health ([2]; 3 months): 0.03; Effect size estimate for change in SF-36 Mental Composite Summary (MCS) ([2]; 3 months): 0.86; Effect size estimate for change in SF-36 Mental Health ([2]; 3 months): 0.76; Effect size estimate for change in SF-36 Physical Composite Summary (PCS) ([2]; 3 months): −0.21; Effect size estimate for change in SF-36 Physical Functioning ([2]; 3 months): −0.23; Effect size estimate for change in SF-36 Role Limitations - Emotional ([2]; 3 months): 0.48; Effect size estimate for change in SF-36 Role Limitations - Physical ([2]; 3 months): 0.33; Effect size estimate for change in SF-36 Social Functioning ([2]; 3 months): 0.26; Effect size estimate for change in SF-36 Vitality ([2]; 3 months): −0.07; Change from baseline in SF-36 Bodily Pain ([2]; 6 months): 15.9 ± 30.5^a; Change from baseline in SF-36 General Health ([2]; 6 months): 12.0 ± 22.3^a; Change from baseline in SF-36 Mental Composite Summary (MCS) ([2]; 6 months): 10.3 ± 12.8^a; Change from baseline in SF-36 Mental Health ([2]; 6 months): 17.5 ± 22.9^a,b; Change from baseline in SF-36 Physical Composite Summary (PCS) ([2]; 6 months): 3.9 ± 9.1^a; Change from baseline in SF-36 Physical Functioning ([2]; 6 months): 11.4 ± 21.5^a; Change from baseline in SF-36 Role Limitations - Emotional ([2]; 6 months): 24.0 ± 39.9^a; Change from baseline in SF-36 Role Limitations - Physical ([2]; 6 months): 14.8 ± 32.3^a; Change from baseline in SF-36 Social Functioning ([2]; 6 months): 23.1 ± 32.1^a; Change from baseline in SF-36 Vitality ([2]; 6 months): 19.0 ± 25.5^a; Change from baseline in SF-36 Mental Composite Summary (MCS) [2, 5]: 10.3±12.8; Change from baseline in SF-36 Mental Health [2, 5]: 17.5±22.9; Effect size estimate for change in SF-36 Bodily Pain ([2]; 6 months): 0.28; Effect size estimate for change in SF-36 General Health ([2]; 6 months): 0.08; Effect size estimate for change in SF-36 Mental Composite Summary (MCS) ([2]; 6 months): 0.64; Effect size estimate for change in SF-36 Mental Health ([2]; 6 months): 0.59; Effect size estimate for change in SF-36 Physical Composite Summary (PCS) ([2]; 6 months): −0.07; Effect size estimate for change in SF-36 Physical Functioning ([2]; 6 months): −0.11; Effect size estimate for change in SF-36 Role Limitations - Emotional ([2]; 6 months): −0.42; Effect size estimate for change in SF-36 Role Limitations - Physical ([2]; 6 months): −0.18; Effect size estimate for change in SF-36 Social Functioning ([2]; 6 months): 0.20; Effect size estimate for change in SF-36 Vitality ([2]; 6 months): 0.13; effect on physical health or functioning [2, 6]: no detrimental effect; impact on mental health status [2, 6]: strong, positive impact; negative mood symptom scores (women with PMS; [7]): significant decrease; somatic symptom scores (women with PMS; [7]): significant decrease; irritability, depression, feeling of swelling, breast tenderness and food craving (women with PMS; in comparison to placebo): significantly improved; enhanced reactivity to novelty (rats): ameliorated
